Literature values as cited in patent US12618855B2, “Serum protein biomarker panel for idiopathic pulmonary fibrosis” (Children's Hospital Medical Center, priority 2019, dated 2026).

Biological target: p110β (Homo sapiens, UniProt P42338)
Details: p110β compared with p110α, p110-γ and p110-δ (equipotent)

Chain of p110β (P42338 whole entry, species assumed): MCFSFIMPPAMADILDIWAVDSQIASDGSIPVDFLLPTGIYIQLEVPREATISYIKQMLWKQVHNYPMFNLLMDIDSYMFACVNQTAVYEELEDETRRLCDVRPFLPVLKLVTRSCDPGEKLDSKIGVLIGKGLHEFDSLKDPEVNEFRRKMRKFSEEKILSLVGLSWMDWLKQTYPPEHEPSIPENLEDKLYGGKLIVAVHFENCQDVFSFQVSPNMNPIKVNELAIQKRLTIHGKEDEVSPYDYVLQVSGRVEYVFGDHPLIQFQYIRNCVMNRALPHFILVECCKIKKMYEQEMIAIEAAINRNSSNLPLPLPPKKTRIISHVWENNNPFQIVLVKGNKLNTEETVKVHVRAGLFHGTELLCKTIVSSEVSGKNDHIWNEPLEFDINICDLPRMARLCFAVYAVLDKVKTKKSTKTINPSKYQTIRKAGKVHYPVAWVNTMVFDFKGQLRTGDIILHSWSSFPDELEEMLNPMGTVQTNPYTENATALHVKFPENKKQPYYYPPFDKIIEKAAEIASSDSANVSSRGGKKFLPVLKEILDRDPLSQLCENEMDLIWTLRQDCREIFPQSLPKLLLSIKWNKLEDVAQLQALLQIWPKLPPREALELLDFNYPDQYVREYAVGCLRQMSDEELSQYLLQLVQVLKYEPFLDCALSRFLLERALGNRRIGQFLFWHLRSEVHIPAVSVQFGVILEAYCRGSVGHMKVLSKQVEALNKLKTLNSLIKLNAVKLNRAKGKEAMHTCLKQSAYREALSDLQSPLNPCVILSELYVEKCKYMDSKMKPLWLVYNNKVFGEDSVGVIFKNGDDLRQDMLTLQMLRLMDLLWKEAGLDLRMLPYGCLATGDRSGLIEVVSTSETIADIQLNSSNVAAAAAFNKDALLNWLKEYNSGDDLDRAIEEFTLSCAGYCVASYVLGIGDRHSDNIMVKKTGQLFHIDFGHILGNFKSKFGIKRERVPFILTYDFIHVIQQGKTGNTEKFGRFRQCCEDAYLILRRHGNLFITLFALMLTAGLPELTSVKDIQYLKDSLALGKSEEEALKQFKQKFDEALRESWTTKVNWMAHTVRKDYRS
Chain of p110β (P27986 whole entry partner, species assumed): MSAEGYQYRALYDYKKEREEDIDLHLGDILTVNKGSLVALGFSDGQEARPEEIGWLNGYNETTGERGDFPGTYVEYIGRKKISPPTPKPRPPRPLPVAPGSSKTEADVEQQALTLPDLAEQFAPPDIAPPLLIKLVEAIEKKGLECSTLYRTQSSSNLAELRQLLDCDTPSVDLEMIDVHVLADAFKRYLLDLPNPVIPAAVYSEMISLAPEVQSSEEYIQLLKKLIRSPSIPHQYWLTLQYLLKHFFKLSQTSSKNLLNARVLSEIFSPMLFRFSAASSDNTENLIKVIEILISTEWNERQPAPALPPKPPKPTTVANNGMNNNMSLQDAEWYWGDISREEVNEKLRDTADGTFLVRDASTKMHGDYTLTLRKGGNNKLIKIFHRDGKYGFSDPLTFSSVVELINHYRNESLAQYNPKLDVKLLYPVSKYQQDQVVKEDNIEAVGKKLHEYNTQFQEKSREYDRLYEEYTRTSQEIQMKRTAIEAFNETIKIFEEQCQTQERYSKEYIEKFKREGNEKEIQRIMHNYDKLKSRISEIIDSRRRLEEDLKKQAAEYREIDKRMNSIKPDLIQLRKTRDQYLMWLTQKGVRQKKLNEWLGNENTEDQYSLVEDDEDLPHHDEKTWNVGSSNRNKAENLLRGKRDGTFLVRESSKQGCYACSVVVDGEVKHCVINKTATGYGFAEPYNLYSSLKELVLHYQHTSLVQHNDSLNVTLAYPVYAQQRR

- lower potency of p110β inhibition: 30 fold
Structure (SMILES): Cc1nc(-c2cn3c(n2)-c2ccc(-c4cnn(C(C)(C)C(N)=O)c4)cc2OCC3)n(C(C)C)n1 [Taselisib]
